Test results: ChEMBL document CHEMBL5344445, “Profiling the Linear Peptides of Venom from the Brazilian Scorpion Tityus serrulatus: Structural and Functional Characterization” (J Nat Prod, 2024)
Activity calls are given as the source filed them. The calls are words filed in the database; no cut-off is given here. Peptide text beside a SMILES is read from it.

What was measured:
Staphylococcus aureus = experiment: Antibacterial activity against Staphylococcus aureus; assay type: functional, organism-based
[1] = Effect on locomotory activity in Swiss mouse assessed as decrease in frequency at 2 ug, I.PL incubated for 3 to 15 mins by open field test relative to control; assay type: toxicity; parameters: scale not given: the % may be the effect or the level left; settings: in vivo, other, time 3-15 min
Escherichia coli = experiment: Antibacterial activity against Escherichia coli; assay type: functional, organism-based
[2] = Effect on rearing activity in Swiss mouse assessed as increase in frequency at 2 ug, I.PL incubated for 3 to 15 mins by open field test relative to control; assay type: toxicity; settings: in vivo, other, time 3-15 min
Klebsiella aerogenes = experiment: Antibacterial activity against Enterobacter aerogenes; assay type: functional, organism-based
[3] = Induction of Wistar rat mast cell degranulation assessed as beta-D-glusosaminidase release at 5 to 500 uM incubated for 15 mins relative to control; assay type: toxicity, cell-based; settings: 0.25 h, dose 5-500 µM
[4] = Induction of nociception in Swiss mouse at 2 ug, I.PL incubated for 300 mins by von frey test relative to control; assay type: toxicity; settings: in vivo, other, 5 h
[5] = Induction of nociception in Swiss mouse at 2 ug, I.PL incubated for 180 mins by von frey test relative to control; assay type: toxicity; settings: in vivo, other, 3 h
Streptococcus pneumoniae = experiment: Antibacterial activity against Streptococcus pneumoniae; assay type: functional, organism-based
[6] = Induction of nociception in Swiss mouse at 2 ug, I.PL incubated for 60 mins by von frey test relative to control; assay type: toxicity; settings: in vivo, other, 1 h
[7] = Induction of edema formation in Swiss mouse at 2 ug, I.PL measured after 60 mins relative to control; assay type: toxicity; settings: in vivo, other, 1 h
[8] = Induction of edema formation in Swiss mouse at 2 ug, I.PL measured after 300 mins relative to control; assay type: toxicity; settings: in vivo, other, 5 h
Erythrocyte = experiment: (§1) Hemolytic activity in Wistar rat RBC at 5 to 500 uM incubated for 120 mins; assay type: toxicity, cell-based; settings: erythrocyte, 2 h, 500 µM, dose 5-500 µM
[9] = Induction of edema formation in Swiss mouse at 2 ug, I.PL measured after 180 mins relative to control; assay type: toxicity; settings: in vivo, other, 3 h
[10] = Induction of Wistar rat mast cell lysis assessed as LDH release at 5 to 500 uM incubated for 5 mins in presence of NADH relative to control; assay type: toxicity, cell-based; settings: dose 5-500 µM
[11] = as §1; assay type: toxicity, cell-based, Erythrocyte; settings: Wistar, red blood cells (erythrocytes), dose 5-500 µM, read-out: Activity

Row | Compound | Activity (Staphylococcus aureus) | Activity ([1]; dose 2 µg) | Activity (Escherichia coli) | Activity ([2]; dose 2 µg) | Activity (Klebsiella aerogenes) | Activity [3] | Activity ([4]; dose 2 µg) | Activity ([5]; dose 2 µg) | Activity (Streptococcus pneumoniae) | Activity ([6]; dose 2 µg) | Activity ([7]; dose 2 µg) | Activity ([8]; dose 2 µg) | Activity (Erythrocyte) | Activity ([9]; dose 2 µg) | Activity [10] | Activity ([1]; at 2 µg) | Activity ([2]; at 2 µg) | Activity ([4]; at 2 µg) | Activity ([5]; at 2 µg) | Activity ([6]; at 2 µg) | further results
1 | CC(C)C[C@H](NC(=O)CNC(=O)CNC(=O)[C@H](Cc1c[nH]cn1)NC(=O)[C@H](CC(=O)O)NC(=O)CNC(=O)[C@H](CO)NC(=O)[C@H](CC(C)C)NC(=O)[C@H](CC(C)C)NC(=O)[C@H](C)NC(=O)[C@H](CC(=O)O)NC(=O)[C@H](CS)NC(=O)CN)C(=O)N[C@@H](CC(C)C)C(=O)N[C@@H](CO)C(=O)N[C@@H](C)C(=O)N[C@@H](CC(N)=O)C(=O)NCC(=O)N[C@@H](CS)C(=O)O (H-GCDALLSGDHGGLLSANGC-OH) | inactive | Non-Toxic | inactive | Non-Toxic | inactive | Non-Toxic | Non-Toxic | Non-Toxic | inactive | Non-Toxic | Non-Toxic | Non-Toxic | Non-Toxic | Non-Toxic | Non-Toxic |  |  |  |  |  | 
2 | H-KETNAKPPA-OH | inactive |  | inactive |  | inactive | Non-Toxic |  |  | inactive |  | Non-Toxic | Non-Toxic | Non-Toxic | Non-Toxic | Non-Toxic | <= 40% | <= 40% | 71% | 71% | 41% | 
3 | H-ILPNDK-OH | inactive | Non-Toxic | inactive | Non-Toxic | inactive | Non-Toxic | Non-Toxic | Non-Toxic | inactive | Non-Toxic | Non-Toxic | Non-Toxic |  | Non-Toxic | Non-Toxic |  |  |  |  |  | hemolysis at 2 h, up to 500 µM [11]: ≤ 40%
4 | H-IPEDIIKK-OH | inactive | Non-Toxic | inactive | Non-Toxic | inactive | <= 40% | Non-Toxic | Non-Toxic | inactive | Non-Toxic | Non-Toxic | Non-Toxic |  | Non-Toxic | <= 40% |  |  |  |  |  | hemolysis at 2 h, up to 500 µM [11]: ≤ 40%
5 | H-GLREKHVQ-OH | inactive |  | inactive | Non-Toxic | inactive | Non-Toxic | Non-Toxic | Non-Toxic | inactive | Non-Toxic | Non-Toxic | Non-Toxic | Non-Toxic | Non-Toxic | Non-Toxic | <= 40% |  |  |  |  | 
6 | H-KHFGKDSNFPF-NH2 | inactive |  | inactive | Non-Toxic | inactive | Non-Toxic | Non-Toxic | Non-Toxic | inactive | Non-Toxic | Non-Toxic | Non-Toxic | Non-Toxic | Non-Toxic | Non-Toxic | <= 40% |  |  |  |  | 
7 | H-GKGKEILGK-OH | inactive | Non-Toxic | inactive | Non-Toxic | inactive | Non-Toxic | Non-Toxic | Non-Toxic | inactive | Non-Toxic | Non-Toxic | Non-Toxic | Non-Toxic | Non-Toxic | Non-Toxic |  |  |  |  |  | 
8 | H-AEIDFSGIPEDIIKQI-OH | inactive |  | inactive |  | inactive | Non-Toxic |  |  | inactive |  | Non-Toxic | Non-Toxic | Non-Toxic | Non-Toxic | Non-Toxic | <= 40% | <= 40% | 71% | 71% | 71% | 
9 | H-ILTGKLKCK-OH | inactive | Non-Toxic | inactive | Non-Toxic | inactive | Non-Toxic |  |  | inactive |  |  | Non-Toxic | Non-Toxic | Non-Toxic | Non-Toxic |  |  | 41% | 41% | 41% | Activity ([7]; at 2 µg): 71%
10 | H-SESNTCG-OH | inactive | Non-Toxic | inactive |  | inactive | Non-Toxic |  |  | inactive |  | Non-Toxic | Non-Toxic | Non-Toxic | Non-Toxic | Non-Toxic |  | <= 40% | <= 40% | <= 40% | <= 40% | 
11 | H-DEGPKSDCKP-OH | inactive | Non-Toxic | inactive |  | inactive | Non-Toxic |  |  | inactive |  |  |  |  |  | Non-Toxic |  | 41% | 71% | 71% | 71% | Activity ([7]; at 2 µg): 71%; Activity ([8]; at 2 µg): 71%; hemolysis at 2 h, up to 500 µM [11]: ≤ 40%; Activity ([9]; at 2 µg): 71%
12 | H-KPVEPVG-OH | inactive | Non-Toxic | inactive |  | inactive | Non-Toxic |  |  | inactive |  | Non-Toxic | Non-Toxic | Non-Toxic | Non-Toxic | Non-Toxic |  | 41% | <= 40% | <= 40% | <= 40% | 
